Test results reported in ChEMBL document CHEMBL6114962, “Nucleoside antiviral agents with atypical structures and new targets” (Bioorg Med Chem Lett, 2025).
pEC50, pIC50: −log10 of the molar value. ≈ marks a conversion by molar mass, not a printed value.

Assays:
Human betaherpesvirus 5 = assay: Antiviral activity against HCMV; type: functional, organism-based
[1] = Cytotoxicity against African green monkey Vero E6 cells assessed as reduction in cell viability by Cell titer-Glo luminescent assay; type: toxicity, cell-based; details: chlorocebus sabaeus
[2] = target: Histone-lysine N-methyltransferase SETD2 (Homo sapiens, UniProt Q9BYW2); assay: Inhibition of human recombinant […] N-terminal His-tagged SETD2 (1347to1711 residues) extracted from Escherichia coli BL21 (DE3) using biotin-tagged Histone H3 and 3H-SAM as substrate incubated for 1 hr by TopCount scintillation proximity assay
Sequence of Histone-lysine N-methyltransferase SETD2 (Q9BYW2 whole entry, the tested form may be a part): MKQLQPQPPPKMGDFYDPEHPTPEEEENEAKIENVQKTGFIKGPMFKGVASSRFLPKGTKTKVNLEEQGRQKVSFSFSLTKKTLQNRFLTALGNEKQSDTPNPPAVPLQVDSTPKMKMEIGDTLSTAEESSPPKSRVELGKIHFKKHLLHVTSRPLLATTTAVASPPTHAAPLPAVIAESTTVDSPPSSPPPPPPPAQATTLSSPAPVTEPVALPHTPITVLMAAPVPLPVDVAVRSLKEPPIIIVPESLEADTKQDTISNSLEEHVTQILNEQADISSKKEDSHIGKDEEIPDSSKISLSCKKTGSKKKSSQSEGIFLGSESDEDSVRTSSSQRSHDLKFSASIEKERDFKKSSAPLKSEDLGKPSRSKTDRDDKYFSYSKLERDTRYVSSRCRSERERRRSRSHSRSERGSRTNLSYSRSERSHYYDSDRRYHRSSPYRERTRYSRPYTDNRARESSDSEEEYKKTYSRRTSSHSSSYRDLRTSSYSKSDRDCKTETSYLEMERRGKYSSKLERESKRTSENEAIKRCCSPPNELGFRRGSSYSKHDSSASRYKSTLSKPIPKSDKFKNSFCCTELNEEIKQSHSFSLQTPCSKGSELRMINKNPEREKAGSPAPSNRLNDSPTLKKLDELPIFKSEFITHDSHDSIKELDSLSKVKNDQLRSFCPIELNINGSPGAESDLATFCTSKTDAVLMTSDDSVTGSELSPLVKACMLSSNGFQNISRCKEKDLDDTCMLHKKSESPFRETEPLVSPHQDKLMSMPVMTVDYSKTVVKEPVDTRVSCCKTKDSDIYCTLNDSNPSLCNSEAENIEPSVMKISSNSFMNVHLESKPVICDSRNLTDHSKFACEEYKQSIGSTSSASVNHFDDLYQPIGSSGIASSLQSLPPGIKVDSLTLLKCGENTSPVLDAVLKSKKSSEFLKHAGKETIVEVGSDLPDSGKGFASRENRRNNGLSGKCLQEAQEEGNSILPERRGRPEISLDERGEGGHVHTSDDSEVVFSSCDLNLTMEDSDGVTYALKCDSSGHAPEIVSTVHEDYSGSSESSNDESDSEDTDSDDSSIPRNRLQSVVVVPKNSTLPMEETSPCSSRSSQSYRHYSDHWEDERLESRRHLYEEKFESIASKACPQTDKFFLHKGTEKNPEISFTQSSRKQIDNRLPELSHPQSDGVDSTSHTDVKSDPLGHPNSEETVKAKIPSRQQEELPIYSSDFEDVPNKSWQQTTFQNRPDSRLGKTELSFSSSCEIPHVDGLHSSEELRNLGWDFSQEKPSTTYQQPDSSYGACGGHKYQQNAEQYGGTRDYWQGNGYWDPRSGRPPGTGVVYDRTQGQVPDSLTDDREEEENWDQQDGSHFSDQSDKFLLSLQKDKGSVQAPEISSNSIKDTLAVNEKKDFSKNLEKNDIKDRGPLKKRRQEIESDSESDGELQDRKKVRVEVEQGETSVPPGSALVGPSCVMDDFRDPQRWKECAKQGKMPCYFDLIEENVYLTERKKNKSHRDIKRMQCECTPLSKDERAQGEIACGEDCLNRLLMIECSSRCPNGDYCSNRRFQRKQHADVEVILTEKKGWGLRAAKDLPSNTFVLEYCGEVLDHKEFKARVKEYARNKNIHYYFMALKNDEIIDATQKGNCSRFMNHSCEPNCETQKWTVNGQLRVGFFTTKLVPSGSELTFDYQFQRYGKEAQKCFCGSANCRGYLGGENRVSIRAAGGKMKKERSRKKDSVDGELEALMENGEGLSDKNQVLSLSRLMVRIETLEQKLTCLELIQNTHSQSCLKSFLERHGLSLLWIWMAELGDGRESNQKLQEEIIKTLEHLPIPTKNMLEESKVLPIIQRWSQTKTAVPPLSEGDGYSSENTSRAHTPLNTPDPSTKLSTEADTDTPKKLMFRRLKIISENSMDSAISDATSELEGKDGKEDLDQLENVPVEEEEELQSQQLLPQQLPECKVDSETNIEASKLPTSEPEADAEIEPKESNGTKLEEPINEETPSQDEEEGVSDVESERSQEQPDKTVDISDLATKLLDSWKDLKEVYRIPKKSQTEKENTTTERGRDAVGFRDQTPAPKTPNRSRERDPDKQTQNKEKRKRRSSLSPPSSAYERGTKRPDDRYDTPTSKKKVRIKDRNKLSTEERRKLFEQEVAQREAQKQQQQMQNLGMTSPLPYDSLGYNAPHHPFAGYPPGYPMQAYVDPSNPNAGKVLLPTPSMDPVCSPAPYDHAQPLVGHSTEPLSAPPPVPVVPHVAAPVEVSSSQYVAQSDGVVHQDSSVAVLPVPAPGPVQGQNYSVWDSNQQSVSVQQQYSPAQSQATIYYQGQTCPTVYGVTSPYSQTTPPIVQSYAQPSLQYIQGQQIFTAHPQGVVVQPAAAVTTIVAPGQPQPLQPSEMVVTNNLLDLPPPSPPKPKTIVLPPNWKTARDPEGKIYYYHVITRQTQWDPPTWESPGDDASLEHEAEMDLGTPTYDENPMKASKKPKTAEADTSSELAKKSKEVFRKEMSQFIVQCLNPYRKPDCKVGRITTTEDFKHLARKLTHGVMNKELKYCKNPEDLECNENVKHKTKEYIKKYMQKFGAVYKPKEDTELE

Influenza A virus [3] = assay: Antiviral activity against influenza A virus H1N1 infected in dog MDCK cells assessed as reduction in virus induced cytopathic effect by CPE assay; type: functional, organism-based
Influenza A virus [4] = assay: Anti-influenza activity against influenza A virus H3N2 (A/California/2014) infected in dog MDCK cells incubated for 72 hrs by MTT assay; type: functional, organism-based
[5] = Cytotoxicity against dog MDCK cells assessed as reduction in cell viability incubated for 48 hrs by CCK-8 assay; type: toxicity, cell-based, Canis lupus familiaris
Human alphaherpesvirus 3 [6] = assay: Antiviral activity against Varicella zoster virus infected in human HEL cells assessed as reduction in plaque formation incubated for 72 hrs; type: functional, organism-based; details: Human alphaherpesvirus 3, HEL
[7] = Cytotoxicity against human HEL cells; type: toxicity, cell-based
SARS-CoV [8] = assay: Antiviral activity against SARS-CoV Urbani infected in Vero E6 cells at 0.01 to 0.025 MOI assessed as inhibition of virus induced cytopathic effect; type: functional, organism-based; details: Severe acute respiratory syndrome-related coronavirus, Vero C1008
[9] = Cytotoxicity against African green monkey Vero E6 cells assessed as reduction in cell viability by neutral red uptake assay; type: toxicity, cell-based, Vero C1008; details: chlorocebus sabaeus
Human alphaherpesvirus 3 [10] = assay: Antiviral activity against Varicella zoster virus infected in human HEL cells assessed as inhibition of plaque formation measured for 3 days; type: functional, organism-based; details: Human alphaherpesvirus 3, HEL, 72 h
HEL = assay: Cytotoxicity against human HEL cells assessed as reduction in cell viability incubated for 24 hrs by MTT assay; type: functional
Human alphaherpesvirus 3 [11] = assay: Antiviral activity against Varicella zoster virus infected in human HEL cells assessed as reduction in plaque formation; type: functional, organism-based; details: Human alphaherpesvirus 3, HEL
SARS-CoV-2 = assay: Antiviral activity against SARS CoV-2 Omicron B1.1.529 infected in Vero E6 cells at 0.02 MOI assessed as reduction in viral RNA growth incubated for 24 hrs by qRT-PCR analysis; type: functional, organism-based; details: Severe acute respiratory syndrome coronavirus 2, Omicron B1.1.529, Vero C1008, 24 h
Vaccinia virus = assay: Antiviral activity against Vaccinia virus; type: functional, organism-based; details: Orthopoxvirus vaccinia
[12] = Cytotoxicity against human HFF cells; type: toxicity, cell-based
Human coronavirus OC43 = assay: Antiviral activity against Human coronavirus OC43 infected in Vero cells assessed as reduction in viral replication pre-incubated with virus for 1 hr followed by washout and compound treatment and measured after 3 days by qRT-PCR analysis; type: functional, organism-based; details: Betacoronavirus 1, Vero
[13] = Cytotoxicity against African green monkey Vero cells; type: toxicity, cell-based; details: chlorocebus sabaeus
Ebolavirus = assay: Antiviral activity against Ebola virus infected in Vero E6 cells assessed as virus-induced cytopathic effect incubated for 3 days by CPE assay; type: functional, organism-based; details: Orthoebolavirus, Vero C1008, 72 h
[14] = Cytotoxicity against African green monkey Vero E6 cells assessed as reduction in cell growth; type: toxicity, cell-based; details: chlorocebus sabaeus
SARS-CoV [15] = assay: Antiviral activity against SARS-CoV Frankfurt-1 infected in Vero E6 cells assessed as reduction in viral replication; type: functional, organism-based; details: Severe acute respiratory syndrome-related coronavirus, Frankfurt-1, Vero C1008
SARS-CoV [16] = assay: Antiviral activity against SARS-CoV HKU39849 infected in Vero E6 cells assessed as reduction in viral replication; type: functional, organism-based; details: Severe acute respiratory syndrome-related coronavirus, HKU39849, Vero C1008
[17] = Cytotoxicity against African green monkey Vero E6 cells assessed as reduction in cell viability measured after 72 hrs by WST-1 assay; type: toxicity, cell-based, Vero C1008; details: chlorocebus sabaeus

With `OC[C@@H]1O[C@H](n2cnc3cc(Br)c(Br)cc32)[C@@H](O)[C@H]1O` as the compound, how does the pEC50 (Human betaherpesvirus 5) read?
The pEC50 was 5.92.

With `O=c1[nH]cnc2c([C@@H]3N[C@H](CO)[C@@H](O)[C@H]3O)c[nH]c12` [FORODESINE] as the compound, how does the CC50 [1] read?
The CC50 was greater than 100 µM.

With `Nc1ncnc2c1ncn2[C@@H]1O[C@H](C[C@H](CC[C@H](N)C(=O)O)NCc2ccccc2)[C@@H](O)[C@H]1O` as the compound, how does the pIC50 [2] read?
Its pIC50 is 6.32.

Which EC50 (Influenza A virus [3]) does the source give for `NC(=O)c1nc(F)cnc1O` [FAVIPIRAVIR] here?
Its EC50 is 0.03 µg/mL (≈ 0.191 µM).

What about the EC50 (Influenza A virus [4]) of the same compound?
The EC50 was 0.07 µg/mL (≈ 0.446 µM).

And the CC50 at 48 h [5]?
Its CC50 at 48 h is greater than 100 µM.

With `O=c1nc2oc(CCCCCCCCCF)cc2cn1[C@H]1C[C@H](O)[C@@H](CO)O1` as the compound, how does the pEC50 (Human alphaherpesvirus 3 [6]) read?
The pEC50 was 7.85.

What about the CC50 [7] of the same compound?
Its CC50 is 200 µM.

Which results are given for `COc1c(C)c2c(c(O)c1C/C=C(\C)CCC(=O)O)C(=O)OC2` [MYCOPHENOLIC ACID]?
pEC50 (SARS-CoV [8]): < 4.52; CC50 [9]: > 30 µM

With `O=c1c2ccccc2n(Cc2cn(CCCOCc3ccccc3)nn2)c(=O)n1Cc1ccc(F)cc1` as the compound, how does the pEC50 (Human alphaherpesvirus 3 [10]) read?
The pEC50 was 4.91.

What does the source list for `O=c1nc2oc(CCCCCCCCCBr)cc2cn1[C@H]1C[C@H](O)[C@@H](CO)O1`?
pEC50 (Human alphaherpesvirus 3 [6]): 7.51; CC50 [7]: > 50 µM

For `COc1ccc(C(OC[C@H]2O[C@@H](n3cc4c(nc3=O)Nc3ccccc3O4)C[C@@H]2O)(c2ccccc2)c2ccc(OC)cc2)cc1`, which CC50 (HEL) is on record?
The CC50 was 12.2 µM.

What about the pEC50 (Human alphaherpesvirus 3 [11]) of the same compound?
The pEC50 was 5.82.

With `CC(C)C(=O)OC[C@H]1O[C@@H](n2ccc(NO)nc2=O)[C@H](O)[C@@H]1O` [MOLNUPIRAVIR] as the compound, how does the CC50 [1] read?
Its CC50 is greater than 100 µM.

And the pEC50 (SARS-CoV-2)?
The pEC50 was 5.97.

Which CC50 [1] does the source give for `COc1nc(N)nc2c1ncn2[C@@H]1O[C@H](CO)[C@@H](O)[C@@H]1O` [NELARABINE] here?
The CC50 was greater than 100 µM.

Which CC50 [1] does the source give for `CC(C)Nc1nc2cc(Cl)c(Cl)cc2n1[C@H]1O[C@@H](CO)[C@H](O)[C@@H]1O` [MARIBAVIR] here?
Its CC50 is greater than 100 µM.

With `Nc1ccn(C[C@@H](CO)OCP(=O)(O)O)c(=O)n1` [CIDOFOVIR ANHYDROUS] as the compound, how does the pEC50 (Vaccinia virus) read?
Its pEC50 is 4.56.

What about the CC50 [12] of the same compound?
The CC50 was greater than 100 µM.

With `NC(=O)c1cc([C@@H]2O[C@H](CO)[C@@H](O)[C@H]2O)n2nc(CF)nc(N)c12` as the compound, how does the pEC50 (Human coronavirus OC43) read?
The pEC50 was 5.89.

What about the CC50 [13] of the same compound?
The CC50 was 45 µM.

With `CCCCCOCCCCCCCCCc1cc2cn([C@@H]3CC[C@H](CO)O3)c(=O)nc2o1` as the compound, how does the pEC50 (Vaccinia virus) read?
Its pEC50 is 6.72.

And the CC50 [12]?
Its CC50 is greater than 100 µM.

For `CC(C)=CCNc1ncnc2c1ncn2[C@@H]1O[C@H](CO)[C@@H](O)[C@H]1O` [RIBOPRINE], which CC50 [1] is on record?
The CC50 was greater than 100 µM.

With `Nc1ncnc2c1ncn2[C@@H]1O[C@H](C[C@@H](N)CC[C@H](N)C(=O)O)[C@@H](O)[C@H]1O` [SINEFUNGIN] as the compound, how does the pIC50 [2] read?
Its pIC50 is 4.55.

With `Nc1nccc2c1ncn2[C@@H]1C=C(CO)[C@@H](O)[C@H]1O` as the compound, how does the pEC50 (Ebolavirus) read?
Its pEC50 is 4.52.

What about the CC50 [14] of the same compound?
Its CC50 is greater than 100 µM.

For `NC(=O)c1ncn([C@@H]2O[C@H](CO)[C@@H](O)[C@H]2O)c1O` [MIZORIBINE], which EC50 (SARS-CoV [15]) is on record?
The EC50 was 3.5 µg/mL (≈ 13.5 µM).

And the EC50 (SARS-CoV [16])?
Its EC50 is 16 µg/mL (≈ 61.7 µM).

What about the CC50 at 72 h [17] of the same compound?
Its CC50 at 72 h is greater than 200 µg/mL.

Which CC50 (HEL) does the source give for `COc1ccc(C(OC[C@H]2O[C@@H](n3cc4c(nc3=O)Nc3ccccc3O4)[C@H](O)[C@@H]2O)(c2ccccc2)c2ccc(OC)cc2)cc1` here?
Its CC50 is 9.7 µM.

And the pEC50 (Human alphaherpesvirus 3 [11])?
The pEC50 was 5.57.

With `COc1ccc(C(OC[C@H]2O[C@@H](n3cc4c(nc3=O)Nc3c(OCCN)cccc3O4)C[C@@H]2O)(c2ccccc2)c2ccc(OC)cc2)cc1` as the compound, how does the CC50 (HEL) read?
The CC50 was 14.4 µM.

And the pEC50 (Human alphaherpesvirus 3 [11])?
Its pEC50 is 5.77.
